The values that follow come from patent US20050170345A1, “Neuroglobin is up-regulated by and protects neurons from hypoxic-ischemic injury” (priority 2001, published 2005).

“Also recorded” adds a separate entry of the source. Like-named read-outs stand apart in the source and are kept apart here. {Fluorescein} = fluorescein label

Data set [1] deals with 17-20 kDa caspase-3 cleavage product. The data set can be described thus: Caspase-3 cleavage product immunofluorescence in ODN-transfected cortical neurons. It is filed as cell-based, mouse. Particulars: fluorescence microscopy, hypoxic cortical neurons. On the procedure:
Cultures were fixed with 4% paraformaldehyde and incubated over night at 4° C. with one or more of the following primary antibodies: rabbit polyclonal anti-Ngb (1:200), mouse monoclonal anti-NeuN (1:200, Chemicon), and rabbit polyclonal anti-17-20 kDa caspase-3 cleavage product (1:100, New England Biolabs). The secondary antibodies (all 1:200) were fluorescein isothiocyanate-conjugated goat anti-rabbit or anti-mouse IgG (Vector) and rhodamine-conjugated donkey anti-rabbit IgG (Jackson ImmunoResearch). Controls for non-specific binding included omitting primary (FIG. 1C) or secondary antibodies. In addition, in some cultures, nuclei were labeled with 4′,6-diamidino-2-phenylindole (DAPI) or DNA strand breaks were labeled with the Klenow fragment of DNA polymerase I (Roche) followed by rhodamine avidin D (Vector), as described (Jin et al. (1999) J Neurochem 72: 1204-1214). Fluorescence signals were detected with a Nikon E800 epifluorescence microscope using excitation/emission wavelengths of 535/565 nm for rhodamine (red), 470/505 nm for fluorescein isothiocyanate (green) and 360/400 nm for DAPI (blue). Results were recorded with a Magnifire digital color camera (Optronics). […]

The test system of a further data set is Ngb mRNA. Nature of the data set: Ngb mRNA expression in HN33 cells (RT-PCR, quantitative RT-PCR, Northern blot). It is filed as cell-based, mouse. Particulars: HN33 cells; for effect on hemin-induced Ngb expression at the mRNA level (quantitative RT-PCR): 1 h pretreatment then 50 μM hemin 24 h, LY83583 1 μM, KT5823 8 μM. As to the method:
(§1) HN33 cells were cultured as described (Lee et al. (1990) J Neurosci. 10: 1779-1787; Shi et al. (1998) J Neurochem., 70:1035-1044; Jin et al. (2000) Proc Nati Acad Sci USA., 97:10242-10247). Cells were plated at 4×10^5 cells/well onto uncoated, 6-well plastic culture dishes in Dulbecco's modified Eagle's medium containing 10% (v/v) fetal bovine serum, 100 units/ml of penicillin and 100 μg/ml of streptomycin, and maintained at 37° C. in humidified 95% air/5% CO2. Cells were treated with hemin (typically 50 μM) or 8-Br-cGMP (10 μM) for up to 3 days, without daily replacement. To suppress sGC or PKG activity, cells were pretreated for 1 hour with inhibitors before adding other reagents.
RT-PCR and Northern blot analyses were carried out as described previously (Zhu and Zhang (1999) Biochem Biophys Res Commun., 258:87-93). Briefly, total RNA from treated and untreated cells was extracted using a RNeasy Mini Kit (QIAGEN Operon, Valencia, Calif.), and DNA-free total RNA (2 μg per sample) was reverse-transcribed into first-strand cDNA using the Reverse Transcription System and Oligo-dT12-18 (GIBCO-BRL, Rockville, Md.) (Id.). Sequences of the primers used for PCR amplification were: Ngb forward, 5′ CTCTGGAACATGGCACTGTC 3′ (nt 135-154, SEQ ID NO:7); Ngb reverse, 5′ GCACTGGCTCGTCTCTTACT 3′ (nt 547-528, SEQ ID NO:8); β-actin forward, 5′ CACAGGCATTGTGATGGACTC 3′ (nt 524-544, SEQ ID NO:9); β-actin reverse, 5′ GCTCAGGAGGAGCAATGATCT 3′ (nt 582-563, (SEQ ID NO:10). Primers were designed based on the published sequences of these genes and were synth esized by QIAGEN Operon. All PCR primer pairs gave rise to only one discrete band of the expected size. PCR reactions were carried out in a total volume of 25 μl containing 2 μl cDNA, 1×PCR buffer (Boehringer Mannheim, Mannheim, FRG), 200 μM dNTPs, 0.6 U Taq DNA polymerase (Boehringer Mannheim), and 0.2 μM primers. The optimal conditions for amplification (temperature and cycle number) were determined experimentally according to previously published procedures (Id.). Different ratios of Ngb to b-actin primer pairs were tested to ensure that Ngb and b-actin were amplified with similar efficiency, and a kinetic study was undertaken to establish the number of cycles sufficient to detect both Ngb and b-actin without reaching saturation for either. The parameters chosen for PCR amplification were 95° C. for 1 minute, 57° C. for 45 seconds, 72° C. for 1 minute for 25-30 cycles, and a final incubation at 72° C. for 10 minutes. PCR products were separated on 1.2% agarose gels, visualized by ethidium bromide staining, and quantified using a ChemiImage System (Alpha Innotech Corporation, San Leandro, Calif.).
For Northern blotting, 15 μg of total RNA from each sample was fractionated on 1% formaldehyde/agarose gels and transferred to Hybond-N nylon membranes (Amersham Pharmacia, Piscataway, N.J.). Filters were hybridized with probes for Ngb MRNA, and β-actin mRNA at 68° C. in hybridization buffer (Clontech, Palo Alto, Calif.). ^32P-radiolabeled DNA probes were synthesized using cDNA obtained from RT-PCR amplification.
Quantitative RT-PCR analysis was carried out as described previously.8 PCR reactions were carried out in a total volume of 25 μl containing 1 μI cDNA, 1×PCR buffer (Boehringer Mannheim), 200 μM dNTPs, 0.6 U Taq DNA polymerase (Boehringer Mannheim), two pairs of primers (one pair for the Ngb gene, another for the b-actin gene used as an internal control). The optimal conditions for amplification (the proportion between the two pairs of primers, temperatures, and cycle numbers) were determined experimentally according to previously established procedures.8 PCR products were separated on 1.2% agarose gels, visualized by ethidium bromide staining, and quantified using a ChemiImage System (Alpha Innotech Corporation).

The subject of another data set is Ngb protein. The data set can be described thus: Ngb protein expression in HN33 cells (Western blot). It is filed as cell-based, mouse. Particulars: HN33 cells; for effect on induction of Ngb expression by hemin (Western blot): 1 h pretreatment then 50 μM hemin 24 h, LY83583 1 μM, KT5823 8 μM, GF109203X 10 μM, PD98059 20 μM. On the procedure:
as §1
(§2) Cells were washed twice in PBS, and whole-cell extracts were prepared by adding 10 volumes of 1× sample buffer containing 2% SDS, 100 mM dithiothreitol, 60 mM Tris (pH 6.8) and 10% glycerol, and boiled for 5 minutes. Protein concentrations were determined using Bradford Protein Assays (Bio-Rad, Hercules, Calif.); 30 μg of protein was analyzed by 12% or 15% SDS-PAGE and transferred to Immuno-Blot PVDF membranes (Bio-Rad). Membranes were probed with affinity-purified anti-Ngb antibody, which was produced by immunizing with a synthetic peptide corresponding to amino-acids 35-50 (NH2-CLSSPEFLDHIRKVML-COOH, (SEQ ID NO:11) of mouse Ngb (Sun et aL (2001 Proc Natl Acad Sci USA. 98:15306-15311),and the signal was detected with Boehringer Mannheim chemiluminescence blotting kits. Differences in protein expression on Western blots were quantified using a GS-710 calibrated imaging densitometer and Quantity One software (Bio-Rad).

For data set [2], the system named is vascular endothelial growth factor. Particulars: aortic smooth muscle cells; cited from earlier work.
In data set [3] the test system is Ngb. The data set can be described thus: Ngb expression in cultured cortical neurons treated with hypoxia mimetics or other stressors (Western blot). In kind it is cell-based, mouse.
For data set [4], the system named is Ngb. The data set can be described thus: Hypoxia-induced Ngb expression in HN33 cells pretreated with protein kinase inhibitors (Western blot). In kind it is cell-based, mouse. The settings on record: inhibitor 1 hour then hypoxia (95% N2/5% CO2) 20 hours. On the procedure: FIGS. 10A and 10B show the effects of protein kinase inhibitors on hypoxia-induced Ngb expression. HN33 cells were treated with protein kinase inhibitors at the indicated concentrations for 1 hour, and then exposed to hypoxia (95% N2/5% CO2) for 20 hours. Western blotting was used to detect Ngb protein expression (FIG. 10A), which was quantified by computer densitometry (FIG. 10B). Data are representative blots (top) or means±SEM (bottom) from 3 experiments. *P<0.05 for drug treatment relative to hypoxia alone.
as §2

For the molecule “5′-ATG GAG CGC CCG GA-3′ (sense ATGGAGCGCCCGGA; DNA, 5' {Fluorescein}, backbone and methylation of C not given here) [sense ODN]”, in data set [1], the “transfected cells co-expressing the 17-20 kDa caspase-3 cleavage product” value is listed as “few”.
Regarding `Nc1nc2c(nc(Br)n2[C@@H]2O[C@@H]3COP(=O)(O)O[C@H]3[C@H]2O)c(=O)[nH]1` [8-Br-cGMP], the “increase in Ngb mRNA expression” value with Ngb mRNA (10 μM 8-Br-cGMP, 2-24 h) is 3- to 4 fold. In addition, the “inductive effect of hemin on neuroglobin reproduced by the agent” value with Ngb protein is “mimicked”. For the same molecule, in the data set on Ngb protein (10 μM 8-Br-cGMP, 2-24 h), the “increase in Ngb protein expression” value is 2- to 2.5 fold. The “effect on hypoxic induction of vascular endothelial growth factor” value in data set [2] is listed as “suppress”.
In the case of `[Cl-].[Cl-].[Co+2]` [CoCl2], the Ngb expression entry in the data set with Ngb [3] is listed as “increased Ngb expression”.
For the molecule `CN(C)CCCn1cc(C2=C(c3c[nH]c4ccccc34)C(=O)NC2=O)c2ccccc21` [GF109203X], the “effect on induction of Ngb expression by hemin (Western blot)” value (“effect on induction of Ngb expression” below) in the data set on Ngb protein is listed as “no significant effect”.
As for `COC(=O)[C@@]1(OC)C[C@H]2O[C@]1(C)n1c3ccccc3c3c4c(c5c6ccccc6n2c5c31)C(=O)N(C)C4` [KT5823], in the data set with Ngb [4], the “effect on hypoxic induction of Ngb” value was “not blocked”. Besides, the “effect on hemin-induced Ngb expression at the mRNA level (quantitative RT-PCR)” value with Ngb mRNA is reported as “significantly inhibited”. Moreover, the “effect on induction of Ngb expression” value in the data set with Ngb protein was “attenuated; also recorded: significantly diminished”.
The like results for `O=C1C(Nc2ccccc2)=CC(=O)c2ncccc21` [LY83583] were, in that order, “not blocked”, “significantly inhibited” and “attenuated; also recorded: significantly diminished”.
On to `COc1cccc(-c2cc(=O)c3ccccc3o2)c1N` [PD98059], for which the “effect on hypoxic induction of Ngb” value in the data set on Ngb [4] is reported as “blocked”. In the data set on Ngb protein, the “effect on induction of Ngb expression” value is “no significant effect”.
With `CN[C@@H]1C[C@H]2O[C@@](C)([C@@H]1OC)n1c3ccccc3c3c4c(c5c6ccccc6n2c5c31)C(=O)NC4` [staurosporine], the Ngb expression result in the data set with Ngb [3] (cultured cortical neurons treated 24 h, 300 μM CoCl2 (Co2+), 100 μM Dfx, 0.1 μM staurosporine, 500 μM SNP, Western blot) is “did not increase Ngb expression; also recorded: no change”.
